Test results from patent US20230090255A1, “MAGL INHIBITOR, PREPARATION METHOD THEREFOR AND USE THEREOF” (LUNAN PHARMACEUTICAL GROUP CORPORATION, priority 2019, published 2023).

What was measured:
[1] = tested on: mice writhing caused by acetic acid; experiment: Mice writhing caused by acetic acid; details: for latent time, in words / mice writhing times caused by acetic acid, in words: compared with the model group; for Writhing times: 1 h before 0.7% acetic acid ip, within 20 min; for Latent time: time to first writhing; for Inhibition ratio: writhing inhibition
[2] = tested on: mice pain response induced by hot plate; experiment: Mice pain response induced by hot plate; format: in vivo, ICR mice; details: for pain thresholds of the thermal-stimulus mice, in words: compared with the model group; for Pain threshold: hot plate 55°C
Procedure: Female ICR mice (20±2) g were placed on an intelligent hot plate at 55±0.5° C., and latency (s) that the plantar of mice touched the hot plate until the occurrence of a hind paws licking response served as a pain threshold indicator; the mice (response latency <5 s or >30 s) or jumping mice were eliminated.
Grouping and administration were the same as those in Example 40.
The mice were continuously administered intragastrically for 7 consecutive days; the pain threshold of each group of mice was respectively determined once at 30, 60, 90 and 120 min after the final administration; the pain threshold greater than 60 s was calculated by 60 s.

[3] = tested on: mice with inflammatory pain; experiment: Pain threshold of mice with inflammatory pain (complete Freund's adjuvant); format: in vivo, SD mice; details: for pain threshold of the mice with inflammatory pain, in words: compared with the model group; for Pain threshold: complete Freund's adjuvant paw model
Procedure: […] (180±20) g were injected with a complete Freund’s adjuvant (50 µL/piece) at the right rear plantar of mice, and mice in the control group were injected with the corresponding volume of 0.5% sodium carboxymethylcellulose to establish a paw edema inflammatory pain model. After modeling, the mice were administered for 7 d continuously, and administered intragastrically once per day. Pain thresholds (s) of the mice were respectively determined on the 1st, 3rd and 7th day before administration and after modeling at different periods of time.
Grouping and administration were the same as those of Example 40.

[4] = tested on: reserpine-induced mice migraine; experiment: Reserpine-induced mice migraine; format: in vivo, ICR mice; details: for blood coagulation time, in words / level of 5-HT in the brain tissue, in words / times of the tail suspension activity, in words: compared with the model group; for Blood coagulation time: reserpine 0.2 mg/kg sc mice, 1 h after final administration; for brain tissue 5-HT / Times of tail suspension (struggling times within 2 min): reserpine mice; for Times of tail suspension (struggling times within 2 min): 9th day
Procedure: The mice in the blank control group and model group were administered intragastrically via a solvent from the 5th day after modeling, and the rest groups of mice were respectively administered corresponding medicaments and doses for intragastric administration for 10 consecutive days; 1 h later after the final administration, the mice were weighed; blood was taken at inner canthus to detect blood coagulation time; whole blood was taken, and cerebrum was taken on an ice and preserved at -20° C. for the subsequent experiment.
Behavioral test: tail suspension activity was performed; the position 1 cm away from the tail of the mice was glued by an adhesive tape on the 9th day of the test, and the adhesive tape was penetrated by a steel needle, and hung in a dark box such that the mice were hung upside down; then the mice struggling times (total number of overturning from hanging) within 2 min were observed.
The mice were weighed 1 h later after the final administration; blood of inner canthus was taken via a capillary to detect the blood coagulation time.
Blood was taken to detect the content of 5-HT in serum via high-performance liquid chromatography. Cerebrum was taken on an ice and precooled and cleaned slightly with 0.5% sodium carboxymethylcellulose, and then sucked dry with a filter paper, and placed into a cryogenic tube, and preserved at -20° C. for further use, then the content of 5-HT in brain tissues was detected by high performance liquid chromatography.
5-HT test method: a sample was precipitated with 10% perchloric acid solution according to 1:1, and then centrifuged to take supernatant for test. Chromatographic conditions: the chromatographic column is a SHIMADZU VP-ODS C18 column (250*4.6 mm, 5 um), the mobile phase is a methanol-0.01 mol/L potassium acetate buffer solution (10:90, V/V, PH is adjusted to 4.00 with 0.2 mol/L citric acid) for gradient elution; the column temperature is 25° C., flow rate is 1.00 ml/min and test wavelength is 275 nm.

[5] = high dose 30 mg/kg ig 7 d, 30 min after final administration
[6] = high dose 30 mg/kg ig 7 d, 60 min
[7] = high dose 30 mg/kg ig 7 d, 90 min
[8] = high dose 30 mg/kg ig 7 d, 120 min
[9] = low dose 7.5 mg/kg ig 7 d, 30 min after final administration
[10] = low dose 7.5 mg/kg ig 7 d, 60 min
[11] = low dose 7.5 mg/kg ig 7 d, 90 min
[12] = low dose 7.5 mg/kg ig 7 d, 120 min
[13] = middle dose 15 mg/kg ig 7 d, 30 min after final administration
[14] = middle dose 15 mg/kg ig 7 d, 60 min
[15] = middle dose 15 mg/kg ig 7 d, 90 min
[16] = middle dose 15 mg/kg ig 7 d, 120 min
[17] = high dose 30 mg/kg ig once per day, 0 d
[18] = high dose 30 mg/kg ig once per day, 1 d
[19] = high dose 30 mg/kg ig once per day, 3 d
[20] = high dose 30 mg/kg ig once per day, 7 d
[21] = low dose 7.5 mg/kg ig once per day, 0 d
[22] = low dose 7.5 mg/kg ig once per day, 1 d
[23] = low dose 7.5 mg/kg ig once per day, 3 d
[24] = low dose 7.5 mg/kg ig once per day, 7 d
[25] = middle dose 15 mg/kg ig once per day, 0 d
[26] = middle dose 15 mg/kg ig once per day, 1 d
[27] = middle dose 15 mg/kg ig once per day, 3 d
[28] = middle dose 15 mg/kg ig once per day, 7 d

O=C(Nc1cccc(Cl)c1)C1CCN(C(=O)c2cc(O)ccc2F)CC1 [MAGLZ-II-11 (a)]
latent time, in words [1]: extend
mice writhing times caused by acetic acid, in words [1]: significantly decrease
Writhing times ([1]; high dose 30 mg/kg ig): 12.5±9.4
Latent time ([1]; high dose 30 mg/kg ig): 488.8 ± 172.0 s
Inhibition ratio ([1]; high dose 30 mg/kg ig): 68.2%
Writhing times ([1]; low dose 7.5 mg/kg ig): 22.6±12.0
Latent time ([1]; low dose 7.5 mg/kg ig): 401.2 ± 168.3 s
Inhibition ratio ([1]; low dose 7.5 mg/kg ig): 42.5%
Writhing times ([1]; middle dose 15 mg/kg ig): 18.6±14.6
Latent time ([1]; middle dose 15 mg/kg ig): 438.9 ± 230.0 s
Inhibition ratio ([1]; middle dose 15 mg/kg ig): 52.7%
pain thresholds of the thermal-stimulus mice, in words [2]: significantly extend
Pain threshold [2, 5]: 39.45 ± 6.75 s
Pain threshold [2, 6]: 46.56 ± 6.35 s
Pain threshold [2, 7]: 45.42 ± 6.84 s
Pain threshold [2, 8]: 43.73 ± 5.68 s
Pain threshold [2, 9]: 36.18 ± 8.50 s
Pain threshold [2, 10]: 43.17 ± 7.43 s
Pain threshold [2, 11]: 42.83 ± 7.34 s
Pain threshold [2, 12]: 42.16 ± 7.05 s
Pain threshold [2, 13]: 38.16 ± 7.00 s
Pain threshold [2, 14]: 45.47 ± 7.03 s
Pain threshold [2, 15]: 43.71 ± 5.87 s
Pain threshold [2, 16]: 42.34 ± 7.04 s
pain threshold of the mice with inflammatory pain, in words [3]: significantly extend
Pain threshold [3, 17]: 12.97 ± 2.32 s
Pain threshold [3, 18]: 7.83±1.01^∗∗∗ s
Pain threshold [3, 19]: 9.55±1.58^∗∗∗ s
Pain threshold [3, 20]: 11.00±161.00^∗∗∗ s
Pain threshold [3, 21]: 12.96 ± 2.44 s
Pain threshold [3, 22]: 7.38±1.19^∗∗∗ s
Pain threshold [3, 23]: 8.87±0.74^∗∗∗ s
Pain threshold [3, 24]: 9.91±1.05^∗∗∗ s
Pain threshold [3, 25]: 13.03 ± 2.35 s
Pain threshold [3, 26]: 7.58±0.84^∗∗∗ s
Pain threshold [3, 27]: 9.30±0.75^∗∗∗ s
Pain threshold [3, 28]: 10.66±1.30^∗∗∗ s
blood coagulation time, in words [4]: significantly extend
level of 5-HT in the brain tissue, in words [4]: significantly increase
times of the tail suspension activity, in words [4]: significantly increase
Blood coagulation time ([4]; high dose 30 mg/kg ig 10 d): 300.63±45.26 S
Blood coagulation time ([4]; low dose 7.5 mg/kg ig 10 d): 136.75±33.22 S
Blood coagulation time ([4]; middle dose 15 mg/kg ig 10 d): 256.88±42.93 S
brain tissue 5-HT ([4]; high dose 30 mg/kg ig 10 d): 2.97 ± 0.28 nmol/g
Times of tail suspension (struggling times within 2 min) ([4]; high dose 30 mg/kg ig): 20.75±4.98
brain tissue 5-HT ([4]; low dose 7.5 mg/kg ig 10 d): 1.35 ± 0.38 nmol/g
Times of tail suspension (struggling times within 2 min) ([4]; low dose 7.5 mg/kg ig): 16.13±3.68
brain tissue 5-HT ([4]; middle dose 15 mg/kg ig 10 d): 1.86 ± 0.29 nmol/g
Times of tail suspension (struggling times within 2 min) ([4]; middle dose 15 mg/kg ig): 19.88 ± 4.09

O=C(Nc1cccc(Cl)c1)C1CCN(C(=O)c2cccc(O)c2)CC1 [MAGLZ-II-11]
latent time, in words [1]: extend
mice writhing times caused by acetic acid, in words [1]: significantly decrease
Writhing times ([1]; high dose 30 mg/kg ig): 13.6±13.1
Latent time ([1]; high dose 30 mg/kg ig): 467.8 ± 175.6 s
Inhibition ratio ([1]; high dose 30 mg/kg ig): 65.4%
Writhing times ([1]; low dose 7.5 mg/kg ig): 23.4±11.7
Latent time ([1]; low dose 7.5 mg/kg ig): 379.7 ± 129.3 s
Inhibition ratio ([1]; low dose 7.5 mg/kg ig): 40.5%
Writhing times ([1]; middle dose 15 mg/kg ig): 17.5±9.6
Latent time ([1]; middle dose 15 mg/kg ig): 408.4 ± 128.2 s
Inhibition ratio ([1]; middle dose 15 mg/kg ig): 55.5%
pain thresholds of the thermal-stimulus mice, in words [2]: significantly extend
Pain threshold [2, 5]: 41.43 ± 5.15 s
Pain threshold [2, 6]: 46.16 ± 6.63 s
Pain threshold [2, 7]: 47.22 ± 5.98 s
Pain threshold [2, 8]: 45.49 ± 6.31 s
Pain threshold [2, 9]: 37.92 ± 8.83 s
Pain threshold [2, 10]: 44.14 ± 7.56 s
Pain threshold [2, 11]: 45.93 ± 8.38 s
Pain threshold [2, 12]: 43.80 ± 6.12 s
Pain threshold [2, 13]: 40.33 ± 8.25 s
Pain threshold [2, 14]: 44.87 ± 5.67 s
Pain threshold [2, 15]: 46.41 ± 5.36 s
Pain threshold [2, 16]: 43.44 ± 5.91 s
pain threshold of the mice with inflammatory pain, in words [3]: significantly extend
Pain threshold [3, 17]: 12.88 ± 2.27 s
Pain threshold [3, 18]: 7.99±0.90^∗∗∗ s
Pain threshold [3, 19]: 9.88±1.34^∗∗∗ s
Pain threshold [3, 20]: 11.26±1.82^∗∗∗ s
Pain threshold [3, 21]: 12.94 ± 2.41 s
Pain threshold [3, 22]: 7.55±1.29^∗∗∗ s
Pain threshold [3, 23]: 9.00±0.73^∗∗∗ s
Pain threshold [3, 24]: 10.26±1.08^∗∗∗ s
Pain threshold [3, 25]: 12.80 ± 2.27 s
Pain threshold [3, 26]: 7.73±1.10^∗∗∗ s
Pain threshold [3, 27]: 9.47±0.79^∗∗∗ s
Pain threshold [3, 28]: 10.93±1.62^∗∗∗ s
blood coagulation time, in words [4]: significantly extend
level of 5-HT in the brain tissue, in words [4]: significantly increase
times of the tail suspension activity, in words [4]: significantly increase
Blood coagulation time ([4]; high dose 30 mg/kg ig 10 d): 336.88±33.09 S
Blood coagulation time ([4]; low dose 7.5 mg/kg ig 10 d): 222.5±35.52 S
Blood coagulation time ([4]; middle dose 15 mg/kg ig 10 d): 326.88±45.9 S
brain tissue 5-HT ([4]; high dose 30 mg/kg ig 10 d): 3.63 ± 5.34 nmol/g
Times of tail suspension (struggling times within 2 min) ([4]; high dose 30 mg/kg ig): 23.00±3.59
brain tissue 5-HT ([4]; low dose 7.5 mg/kg ig 10 d): 1.54 ± 0.27 nmol/g
Times of tail suspension (struggling times within 2 min) ([4]; low dose 7.5 mg/kg ig): 14.13±1.89
brain tissue 5-HT ([4]; middle dose 15 mg/kg ig 10 d): 2.10 ± 0.22 nmol/g
Times of tail suspension (struggling times within 2 min) ([4]; middle dose 15 mg/kg ig): 16.13±1.73
